This is an account of results in ChEMBL document CHEMBL1909046, “DrugMatrix in vitro pharmacology data”.

In general, IC50 refers to the midpoint of a concentration-inhibition curve. As usually defined, the Ki is a measure of affinity in units of concentration, obtained from inhibition or displacement.

Data set [1] has as its target T1, Alpha-1B adrenergic receptor (Rattus norvegicus, UniProt P15823).
T1 sequence (P15823 whole entry): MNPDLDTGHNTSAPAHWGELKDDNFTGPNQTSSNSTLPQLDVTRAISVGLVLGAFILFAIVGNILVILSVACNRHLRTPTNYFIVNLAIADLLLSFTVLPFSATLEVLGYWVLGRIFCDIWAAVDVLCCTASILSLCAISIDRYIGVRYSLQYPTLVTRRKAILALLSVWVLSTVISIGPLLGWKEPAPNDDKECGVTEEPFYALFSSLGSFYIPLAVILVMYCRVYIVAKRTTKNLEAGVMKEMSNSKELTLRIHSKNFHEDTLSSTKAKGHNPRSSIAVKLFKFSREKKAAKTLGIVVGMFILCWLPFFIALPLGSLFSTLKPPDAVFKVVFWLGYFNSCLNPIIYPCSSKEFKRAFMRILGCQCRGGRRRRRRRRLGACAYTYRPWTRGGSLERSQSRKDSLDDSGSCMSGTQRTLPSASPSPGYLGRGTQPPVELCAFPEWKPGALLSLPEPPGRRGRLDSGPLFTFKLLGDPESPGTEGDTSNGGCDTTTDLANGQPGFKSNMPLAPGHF
Put plainly: DRUGMATRIX: Alpha-1B adrenergic receptor radioligand binding (ligand: prazosin). It counts as cell membranes, Wistar, Liver, Membrane. To be noted: Not Active = under 50% inhibition at 10 µM.

Another data set has as its target D(1A) dopamine receptor (Homo sapiens, UniProt P21728). Put plainly: DRUGMATRIX: Dopamine D1 radioligand binding (ligand: [3H] SCH-23390). It counts as cell membranes, CHO, Membrane. To be noted: cho; Not Active = under 50% inhibition at 10 µM.
Data set [2] has as its target T2, 5-hydroxytryptamine receptor 2C (Homo sapiens, UniProt P28335).
T2 sequence (P28335 whole entry): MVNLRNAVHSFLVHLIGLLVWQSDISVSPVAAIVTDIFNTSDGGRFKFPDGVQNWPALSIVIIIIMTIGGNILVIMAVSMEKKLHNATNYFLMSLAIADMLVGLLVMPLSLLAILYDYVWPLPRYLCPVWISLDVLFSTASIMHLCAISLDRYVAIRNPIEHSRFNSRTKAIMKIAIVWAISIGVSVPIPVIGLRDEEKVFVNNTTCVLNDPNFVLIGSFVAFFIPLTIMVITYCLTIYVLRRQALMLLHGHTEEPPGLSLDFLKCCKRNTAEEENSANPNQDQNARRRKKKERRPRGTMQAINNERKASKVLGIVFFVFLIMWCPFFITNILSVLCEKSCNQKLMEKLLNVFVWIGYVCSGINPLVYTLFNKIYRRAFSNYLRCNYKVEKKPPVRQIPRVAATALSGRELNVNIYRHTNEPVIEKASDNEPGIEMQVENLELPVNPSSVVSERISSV
Nature of the data set: DRUGMATRIX: Serotonin (5-Hydroxytryptamine) 5-HT2C radioligand binding (ligand: [3H] Mesulergine). It counts as cell membranes, CHO-K1, Membrane. To be noted: Not Active = under 50% inhibition at 10 µM.

The next data set concerns the target Estrogen receptor beta (Homo sapiens, UniProt Q92731). To be noted: sf9. Also: in other assays of this panel Not Active means under 50% inhibition at 10 µM.
The target in data set [3] is Kappa-type opioid receptor (Homo sapiens, UniProt P41145). Nature of the data set: DRUGMATRIX: Opiate kappa (OP2, KOP) radioligand binding (ligand: [3H] Diprenorphine). It counts as cell membranes, HEK293, Membrane. To be noted: hek293; Not Active = under 50% inhibition at 10 µM.
Sequence of Kappa-type opioid receptor (P41145 whole entry): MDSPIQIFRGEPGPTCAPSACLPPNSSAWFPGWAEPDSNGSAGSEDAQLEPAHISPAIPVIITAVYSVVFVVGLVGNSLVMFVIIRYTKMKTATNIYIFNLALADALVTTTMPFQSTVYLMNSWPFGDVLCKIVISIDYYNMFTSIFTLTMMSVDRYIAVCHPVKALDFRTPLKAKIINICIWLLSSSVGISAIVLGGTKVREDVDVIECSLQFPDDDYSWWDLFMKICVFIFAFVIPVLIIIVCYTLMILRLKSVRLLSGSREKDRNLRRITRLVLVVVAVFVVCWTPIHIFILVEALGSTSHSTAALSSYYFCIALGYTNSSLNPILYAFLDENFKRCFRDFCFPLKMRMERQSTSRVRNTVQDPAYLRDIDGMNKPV
The next data set concerns the target T3, Cytochrome P450 2A6 (Homo sapiens, UniProt P11509). Also: in other assays of this panel Not Active means under 50% inhibition at 10 µM.
T3 sequence (P11509 whole entry): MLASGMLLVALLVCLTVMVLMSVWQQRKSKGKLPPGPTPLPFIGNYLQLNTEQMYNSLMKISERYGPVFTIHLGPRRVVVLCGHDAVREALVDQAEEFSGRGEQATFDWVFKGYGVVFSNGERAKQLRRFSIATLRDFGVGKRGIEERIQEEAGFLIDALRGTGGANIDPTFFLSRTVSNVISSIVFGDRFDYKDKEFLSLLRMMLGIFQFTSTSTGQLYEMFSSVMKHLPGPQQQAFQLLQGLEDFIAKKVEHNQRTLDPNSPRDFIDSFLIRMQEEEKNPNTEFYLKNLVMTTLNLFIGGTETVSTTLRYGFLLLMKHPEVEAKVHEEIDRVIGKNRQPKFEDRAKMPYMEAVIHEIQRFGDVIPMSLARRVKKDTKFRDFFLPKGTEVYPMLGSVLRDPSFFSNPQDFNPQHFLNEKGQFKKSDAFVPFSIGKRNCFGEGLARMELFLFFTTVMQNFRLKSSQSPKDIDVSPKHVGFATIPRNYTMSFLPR
The settings on record: bti-tn-5b1-4.

Data set [4] addresses Voltage-gated inwardly rectifying potassium channel KCNH2 (Homo sapiens, UniProt Q12809). The settings on record: hek293.

Sequence of D(1A) dopamine receptor (P21728 whole entry): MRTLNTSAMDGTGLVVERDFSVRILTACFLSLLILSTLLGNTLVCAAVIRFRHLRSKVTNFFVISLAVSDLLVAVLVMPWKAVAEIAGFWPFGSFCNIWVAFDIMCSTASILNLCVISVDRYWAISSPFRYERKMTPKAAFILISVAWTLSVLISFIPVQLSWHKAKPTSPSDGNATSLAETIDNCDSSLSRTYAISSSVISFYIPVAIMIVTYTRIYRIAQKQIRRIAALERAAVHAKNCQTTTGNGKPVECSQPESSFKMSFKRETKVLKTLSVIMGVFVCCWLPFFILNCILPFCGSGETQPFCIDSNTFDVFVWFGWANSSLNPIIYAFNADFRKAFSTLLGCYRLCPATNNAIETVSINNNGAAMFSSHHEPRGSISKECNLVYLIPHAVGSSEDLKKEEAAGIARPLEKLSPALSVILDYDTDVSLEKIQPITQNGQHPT
Sequence of Voltage-gated inwardly rectifying potassium channel KCNH2 (Q12809 whole entry): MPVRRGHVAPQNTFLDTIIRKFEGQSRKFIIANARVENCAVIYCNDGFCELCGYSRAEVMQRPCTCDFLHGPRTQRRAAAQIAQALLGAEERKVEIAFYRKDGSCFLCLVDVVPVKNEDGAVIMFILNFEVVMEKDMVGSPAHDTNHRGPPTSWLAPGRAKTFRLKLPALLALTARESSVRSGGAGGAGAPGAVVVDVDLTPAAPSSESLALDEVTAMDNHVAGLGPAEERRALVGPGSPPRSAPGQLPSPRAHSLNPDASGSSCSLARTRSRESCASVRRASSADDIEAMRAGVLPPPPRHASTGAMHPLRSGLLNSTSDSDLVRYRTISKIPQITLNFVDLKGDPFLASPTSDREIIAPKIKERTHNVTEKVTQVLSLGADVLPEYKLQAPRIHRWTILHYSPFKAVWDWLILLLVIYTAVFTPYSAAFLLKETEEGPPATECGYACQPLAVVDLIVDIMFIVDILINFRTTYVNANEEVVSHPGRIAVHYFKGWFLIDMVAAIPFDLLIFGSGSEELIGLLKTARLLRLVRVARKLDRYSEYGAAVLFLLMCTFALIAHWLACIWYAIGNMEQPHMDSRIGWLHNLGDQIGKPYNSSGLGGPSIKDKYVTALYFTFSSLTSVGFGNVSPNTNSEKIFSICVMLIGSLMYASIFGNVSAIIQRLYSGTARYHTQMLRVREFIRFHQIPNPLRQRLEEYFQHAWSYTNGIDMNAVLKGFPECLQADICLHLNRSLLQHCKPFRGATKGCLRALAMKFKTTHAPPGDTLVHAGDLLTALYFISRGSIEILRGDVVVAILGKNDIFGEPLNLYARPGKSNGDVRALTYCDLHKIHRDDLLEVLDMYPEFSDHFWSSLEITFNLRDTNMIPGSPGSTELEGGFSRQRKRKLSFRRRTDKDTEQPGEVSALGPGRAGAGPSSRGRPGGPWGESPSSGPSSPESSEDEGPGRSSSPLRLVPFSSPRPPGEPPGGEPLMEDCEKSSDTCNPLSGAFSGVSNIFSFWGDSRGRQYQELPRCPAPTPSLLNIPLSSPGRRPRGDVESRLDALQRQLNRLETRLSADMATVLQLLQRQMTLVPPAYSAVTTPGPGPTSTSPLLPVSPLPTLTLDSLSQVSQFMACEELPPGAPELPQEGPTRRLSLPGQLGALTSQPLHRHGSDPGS
Sequence of Estrogen receptor beta (Q92731 whole entry): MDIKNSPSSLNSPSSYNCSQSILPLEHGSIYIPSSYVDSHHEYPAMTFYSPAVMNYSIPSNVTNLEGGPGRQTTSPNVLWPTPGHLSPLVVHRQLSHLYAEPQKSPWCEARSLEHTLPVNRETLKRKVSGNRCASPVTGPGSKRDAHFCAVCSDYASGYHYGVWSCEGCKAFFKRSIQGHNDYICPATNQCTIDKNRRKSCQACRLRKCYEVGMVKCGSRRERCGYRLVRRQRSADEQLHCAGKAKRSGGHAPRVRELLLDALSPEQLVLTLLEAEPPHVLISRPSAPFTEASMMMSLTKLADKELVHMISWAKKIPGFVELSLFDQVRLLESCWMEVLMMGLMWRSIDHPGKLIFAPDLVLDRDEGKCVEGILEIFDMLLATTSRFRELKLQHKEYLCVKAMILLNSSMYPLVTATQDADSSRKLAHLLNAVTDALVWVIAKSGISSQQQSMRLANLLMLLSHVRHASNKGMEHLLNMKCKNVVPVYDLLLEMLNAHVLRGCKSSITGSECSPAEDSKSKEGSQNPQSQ

For `CO[C@@]12[C@H](COC(N)=O)C3=C(C(=O)C(C)=C(N)C3=O)N1C[C@@H]1N[C@@H]12` [MITOMYCIN], the IC50 entry (in data set [1]; at D(1A) dopamine receptor; in data set [2] (cho-k1); at Estrogen receptor beta; in data set [3]; against Cytochrome P450 2A6) was “Not Active” in each case. Moreover, in data set [4], the IC50 entry was “Not Active”. The Ki entry (at Cytochrome P450 2A6; in data set [4]) was “Not Active” each time.
Turning to `CCN1CCCC1CNC(=O)c1cc(S(N)(=O)=O)ccc1OC` (centres undefined) [SULPIRIDE], the IC50 result (in data set [1]; at D(1A) dopamine receptor; in data set [2] (cho-k1); against Estrogen receptor beta; in data set [3]; against Cytochrome P450 2A6) was “Not Active” in each case. Moreover, the half-maximal inhibitory concentration (IC50) result in data set [4] is on record as “Not Active”. Besides, the Ki result (at Cytochrome P450 2A6; in data set [4]) was “Not Active” each time.
With `CC[C@@]1(O)C(=O)OCc2c1cc1n(c2=O)Cc2cc3c(CN(C)C)c(O)ccc3nc2-1` [TOPOTECAN], the IC50 result (in data set [1]; at D(1A) dopamine receptor; in data set [2] (cho-k1); against Estrogen receptor beta; in data set [3]; against Cytochrome P450 2A6) was “Not Active” in each case. Besides, the IC50 result in data set [4] is listed as “Not Active”. Further, the Ki result (on Cytochrome P450 2A6; in data set [4]) was “Not Active” throughout.
Take `C=CCc1ccc2c(c1)OCO2` [SAFROLE]: the IC50 entry (in data set [1]; at D(1A) dopamine receptor; in data set [2] (cho-k1); against Estrogen receptor beta; in data set [3]; against Cytochrome P450 2A6) was “Not Active” in each case. The IC50 entry in data set [4] is “Not Active”. Also, the Ki entry (at Cytochrome P450 2A6; in data set [4]) was “Not Active” in each case.
Take `CN1C(=O)OC(C)(C)C1=O` [TRIMETHADIONE]: the IC50 result (in data set [1]; at D(1A) dopamine receptor; in data set [2] (cho-k1); on Estrogen receptor beta; in data set [3]; against Cytochrome P450 2A6) was “Not Active” throughout. For the same compound, the IC50 result in data set [4] is recorded as “Not Active”. Further, the Ki entry (on Cytochrome P450 2A6; in data set [4]) was “Not Active” throughout.
Consider `CS(=O)(=O)c1ccc(C2=C(c3ccccc3)C(=O)OC2)cc1` [ROFECOXIB], for which the IC50 entry (in data set [1]; on D(1A) dopamine receptor; in data set [2] (cho-k1); at Estrogen receptor beta; in data set [3]; against Cytochrome P450 2A6) was “Not Active” each time. The IC50 entry in data set [4] was “Not Active”. In addition, the inhibitory constant (Ki) result (at Cytochrome P450 2A6; in data set [4]) was “Not Active” in each case.
With `CC1(C)[C@H](C(=O)O)N2C(=O)C[C@H]2S1(=O)=O` [SULBACTAM], the IC50 entry (in data set [1]; on D(1A) dopamine receptor; in data set [2] (cho-k1); against Estrogen receptor beta; in data set [3]; against Cytochrome P450 2A6) was “Not Active” in each case. Further, the IC50 result in data set [4] is listed as “Not Active”. For the same compound, the Ki result (on Cytochrome P450 2A6; in data set [4]) was “Not Active” throughout.
On to `O=C(O)c1cc(/N=N/c2ccc(S(=O)(=O)Nc3ccccn3)cc2)ccc1O` [SULFASALAZINE], for which the IC50 result (in data set [1]; on D(1A) dopamine receptor; in data set [2] (cho-k1); at Estrogen receptor beta; in data set [3]; against Cytochrome P450 2A6) was “Not Active” throughout. Besides, in data set [4], the IC50 result is given as “Not Active”. Further, the Ki result (at Cytochrome P450 2A6; in data set [4]) was “Not Active” throughout.
For `CCN(CC)CCNC(=O)c1cc(Cl)c(N)cc1OC` [METOCLOPRAMIDE], the IC50 result in data set [1] is “Not Active”; on D(1A) dopamine receptor, “Not Active”; in data set [2] (read-out: IC50), 2380 nM; against Estrogen receptor beta, “Not Active”; in data set [3], “Not Active”; on Cytochrome P450 2A6, “Not Active”. Further, the IC50 entry in data set [4] is “Not Active”. The Ki in data set [2] (read-out: Ki) was 1250 nM; on Cytochrome P450 2A6, “Not Active”; in data set [4], “Not Active”.
For `Cc1cccc(C)c1NC(=O)C(C)N` (centres undefined) [TOCAINIDE], the IC50 result (in data set [1]; at D(1A) dopamine receptor; in data set [2] (cho-k1); against Estrogen receptor beta; in data set [3]; against Cytochrome P450 2A6) was “Not Active” throughout. Moreover, the IC50 result in data set [4] is “Not Active”. Moreover, the Ki entry (at Cytochrome P450 2A6; in data set [4]) was “Not Active” throughout.
For `C[C@]12CCC(=O)C[C@@H]1CC[C@@H]1[C@@H]2CC[C@]2(C)[C@@H](O)CC[C@@H]12` [STANOLONE], the concentration for half-maximal inhibition (IC50) result (in data set [1]; on D(1A) dopamine receptor; in data set [2] (cho-k1); at Estrogen receptor beta; in data set [3]; at Cytochrome P450 2A6) was “Not Active” throughout. In data set [4], the IC50 result is on record as “Not Active”. The Ki entry (at Cytochrome P450 2A6; in data set [4]) was “Not Active” throughout.
With `CC(N)C12CC3CC(CC(C3)C1)C2` (centres undefined) [RIMANTADINE], the IC50 result (in data set [1]; at D(1A) dopamine receptor; in data set [2] (cho-k1); on Estrogen receptor beta; in data set [3]; on Cytochrome P450 2A6) was “Not Active” throughout. Besides, the IC50 entry in data set [4] is “Not Active”. The Ki entry (on Cytochrome P450 2A6; in data set [4]) was “Not Active” throughout.
